ChEMBL document CHEMBL5537135, “Novel antimicrobial peptides modified with fluorinated sulfono-γ-AA having high stability and targeting multidrug-resistant bacteria infections” (Eur J Med Chem, 2024)
Converted amounts (≈) assume the structure as drawn. The source made the active and inactive calls. The rule behind the calls is not given here. Numbered stars: 1 amine (or outer) side, 2 acyl side, 3 side chain; on linkers, the order of the positions; unused ones are H or OH. Square brackets hold non-standard residues; d marks the D form. Peptide text beside a SMILES is read from it. * marks the point of attachment. X3 = CC(C)C[C@@H](CN(CC(N)=O)S(=O)(=O)c1ccc(C(F)(F)F)cc1)N*; X2 = CC(C)C[C@H](N)CN(CC(=O)[*:2])[*:1]; X1 = O=S(=O)(c1ccc(C(F)(F)F)cc1)*

Legend:
Acinetobacter baumannii = assay: Antimicrobial activity against Acinetobacter baumannii ATCC 19606 assessed as inhibition of visible bacterial growth incubated for 18 hrs by broth-dilution method; type: functional
Pseudomonas aeruginosa [1] = assay: Antimicrobial activity against multidrug-resistant Pseudomonas aeruginosa 073 assessed as inhibition of visible bacterial growth incubated for 18 hrs by broth-dilution method; type: functional
Pseudomonas aeruginosa [2] = assay: Antimicrobial activity against multidrug-resistant Pseudomonas aeruginosa 119 assessed as inhibition of visible bacterial growth incubated for 18 hrs by broth-dilution method; type: functional
Staphylococcus aureus [3] = assay: Antimicrobial activity against methicillin-resistant Staphylococcus aureus 1 assessed as inhibition of visible bacterial growth incubated for 18 hrs by broth-dilution method; type: functional
Staphylococcus aureus [4] = assay: Antimicrobial activity against methicillin-resistant Staphylococcus aureus 2 assessed as inhibition of visible bacterial growth incubated for 18 hrs by broth-dilution method; type: functional
Staphylococcus aureus [5] = assay: Antimicrobial activity against methicillin-resistant Staphylococcus aureus 5 assessed as inhibition of visible bacterial growth incubated for 18 hrs by broth-dilution method; type: functional
Staphylococcus aureus [6] = assay: Antimicrobial activity against methicillin-resistant Staphylococcus aureus 7 assessed as inhibition of visible bacterial growth incubated for 18 hrs by broth-dilution method; type: functional
Staphylococcus aureus [7] = assay: Antimicrobial activity against methicillin-resistant Staphylococcus aureus ATCC 33591 assessed as reduction in bacterial growth in presence of human serum; type: functional
Staphylococcus aureus [8] = assay: Antimicrobial activity against Staphylococcus aureus ATCC 25923 assessed as fold increase in MIC in presence of human serum; type: functional
Staphylococcus aureus [9] = assay: Antibiofilm activity against Staphylococcus aureus ATCC 25923 assessed as inhibition of biofilm formation at 4 to 8 microg/ml incubated for 24 hrs by crystal violet staining based analysis; type: functional; conditions: dose 4-8 µg/ml, at 4 to 8 µg/mL
[10] = tested on: Staphylococcus epidermidis; assay: Antibiofilm activity against Staphylococcus epidermidis ATCC 12228 assessed as inhibition of biofilm formation at 4 to 8 microg/ml incubated for 24 hrs by crystal violet staining based analysis; type: functional; conditions: dose 4-8 µg/ml, at 4 to 8 µg/mL
Pseudomonas aeruginosa [11] = assay: Bactericidal activity against Pseudomonas aeruginosa ATCC 27853 at 2 to 4 times MIC; type: functional, organism-based
Staphylococcus aureus [12] = assay: Antibiofilm activity against methicillin-resistant Staphylococcus aureus ATCC 33591 assessed as biofilm eradication at 4 times MIC incubated for 2 to 4 hrs by crystal violet staining based assay; type: functional, organism-based; conditions: time 2-4 hrs
Pseudomonas aeruginosa [13] = assay: Antibiofilm activity against Pseudomonas aeruginosa ATCC 27853 assessed as biofilm thickness at 1 times MIC90 incubated for 24 hrs by confocal laser scanning microscopic analysis; type: functional
Pseudomonas aeruginosa [14] = assay: Bactericidal activity against Pseudomonas aeruginosa ATCC 27853 assessed as reduction in viable bacteria at 4 times MIC measured for 5 min by time-kill assay; type: functional, organism-based
Staphylococcus aureus [15] = assay: Antibacterial activity against drug-susceptible Staphylococcus aureus ATCC 33591 assessed as reduction in microbial growth; type: functional
Staphylococcus aureus [16] = assay: Synergistic antibacterial activity against Staphylococcus aureus ATCC 33591 assessed as fractional inhibitory concentration index in presence of polymyxin B by checkerboard assay; type: functional
Pseudomonas aeruginosa [17] = assay: Synergistic antibacterial activity against multidrug-resistant Pseudomonas aeruginosa 124 assessed as fractional inhibitory concentration index in presence of ceftazidime by checkerboard assay; type: functional
Staphylococcus aureus [18] = assay: Additive antibacterial activity against methicillin-resistant Staphylococcus aureus S5 assessed as fractional inhibitory concentration index in presence of amoxicillin by checkerboard assay; type: functional
Staphylococcus aureus [19] = assay: Synergistic antibacterial activity against methicillin-resistant Staphylococcus aureus S5 assessed as fractional inhibitory concentration index in presence of polymyxin B by checkerboard assay; type: functional
Pseudomonas aeruginosa [20] = assay: Antimicrobial activity against Pseudomonas aeruginosa ATCC 27853 at 1 times MIC incubated for 18 hrs in presence of LPS/LTA; type: functional, organism-based
Staphylococcus aureus [21] = assay: Antimicrobial activity against Staphylococcus aureus ATCC 33591 at 1 times MIC incubated for 18 hrs in presence of LPS/LTA; type: functional, organism-based
Cell membrane [22] = assay: Induction of outer membrane permeabilization in Pseudomonas aeruginosa ATCC 27853 assessed as increase in NPN uptake measured upto 20 mins by NPN-dye based fluorescence analysis
Cell membrane [23] = assay: Induction of cytoplasmic membrane depolarization in methicillin-resistant Staphylococcus aureus ATCC 33591 assessed as increase in fluorescence intensity at 2 times MIC by DiSC35 dye-based fluorescence assay
Pseudomonas aeruginosa [24] = assay: Induction of intracellular ROS accumulation in Pseudomonas aeruginosa ATCC 27853 by DCFH-DA dye based fluorescence assay; type: functional, organism-based
Staphylococcus aureus [25] = assay: Antibacterial activity against […] Staphylococcus aureus ATCC 33591; type: functional, organism-based
Staphylococcus aureus [26] = assay: Additive antibacterial activity against Staphylococcus aureus ATCC 33591 assessed as fractional inhibitory concentration index in presence of polymyxin B by checkerboard assay; type: functional
Staphylococcus aureus [27] = assay: Synergistic antibacterial activity against methicillin-resistant Staphylococcus aureus S5 assessed as fractional inhibitory concentration index in presence of vancomycin by checkerboard assay; type: functional
Cell membrane [28] = assay: Induction of membrane depolarization in Pseudomonas aeruginosa ATCC 27853 assessed as increase in fluorescence intensity by DiSC35 dye-based fluorescence assay; type: cell membranes
Cell membrane [29] = assay: Induction of membrane disruption in Pseudomonas aeruginosa ATCC 27853 assessed as membrane blebbing at 2 to 4 times MIC incubated for 24 hrs by SEM analysis; type: cell membranes
Cell membrane [30] = assay: Induction of membrane disruption in Pseudomonas aeruginosa ATCC 27853 assessed as membrane lysis at 2 to 4 times MIC incubated for 24 hrs by SEM analysis; type: cell membranes
Cell membrane [31] = assay: Induction of membrane disruption in Staphylococcus aureus ATCC 33591 assessed as membrane blebbing at 2 to 4 times MIC incubated for 24 hrs by SEM analysis; type: cell membranes
[32] = Toxicity in mouse at 40 mg/kg, sc measured for 5 to 1440 mins; type: organism-based; conditions: in vivo, time 5-1440 min
Pseudomonas aeruginosa [33] = assay: Antibacterial activity against Pseudomonas aeruginosa ATCC 27853 infected in C57BL/6 mouse pneumonia model assessed as log reduction in bacterial load in lung at 5 mg/kg, ip administered for 1 to 48 hrs and measured after 3 days; type: functional; conditions: time 1-120 hrs
Pseudomonas aeruginosa [34] = assay: Antibacterial activity against Pseudomonas aeruginosa ATCC 27853 infected in C57BL/6 mouse pneumonia model assessed as decrease in TNF-alpha level in lung at 2.5 to 10 mg/kg, ip administered for 1 to 48 hrs and measured after 3 days; type: functional, organism-based; conditions: dose 2.5-10 mg/kg, time 1-120 hrs
Pseudomonas aeruginosa [35] = assay: Antibacterial activity against Pseudomonas aeruginosa ATCC 27853 infected in C57BL/6 mouse pneumonia model assessed as […] at 2.5 to 10 mg/kg, ip administered for 1 to 48 hrs and measured after 3 days by H and E staining based analysis; type: functional, organism-based; conditions: dose 2.5-10 mg/kg, time 1-120 hrs
Staphylococcus aureus [36] = assay: Antibacterial activity against methicillin-resistant Staphylococcus aureus ATCC 33591 infected in full-thickness wound BALB/c mouse model assessed as log reduction in bacterial load at 0.25 mg/kg, ip administered for 1 to 48 hrs and measured after 3 days by SEM analysis; type: functional; conditions: time 1-120 hrs
Staphylococcus aureus [37] = assay: Antibacterial activity against methicillin-resistant Staphylococcus aureus ATCC 33591 infected in full-thickness wound BALB/c mouse model assessed as reduction in TNF-alpha level in skin at 0.25 to 1 mg/kg, ip administered for 1 to 48 hrs and measured after 3 days; type: functional, organism-based; conditions: dose 0.25-1 mg/kg, time 1-120 hrs

SMILES | MIC (Acinetobacter baumannii) [µg/mL] | MIC (Pseudomonas aeruginosa [1]) [µg/mL] | MIC (Pseudomonas aeruginosa [2]) [µg/mL] | MIC (Staphylococcus aureus [3]) [µg/mL] | MIC (Staphylococcus aureus [4]) [µg/mL] | MIC (Staphylococcus aureus [5]) [µg/mL] | MIC (Staphylococcus aureus [6]) [µg/mL] | MIC (Staphylococcus aureus [7]) [µg/mL] | fold change (FC) (Staphylococcus aureus [8]) | inhibition (INH) (Staphylococcus aureus [9]) [%] | inhibition (INH) [10] [%] | Activity (Pseudomonas aeruginosa [11]) | Activity (Staphylococcus aureus [12]) | Activity (Pseudomonas aeruginosa [13]) [um] | Activity (Pseudomonas aeruginosa [14]) | MIC (Staphylococcus aureus [15]) [µg/mL] | fractional inhibitory concentration index (FICI) (Staphylococcus aureus [18]) | Activity (Pseudomonas aeruginosa [20]) | Activity (Staphylococcus aureus [21]) | Activity (Cell membrane [22]) | also measured
CC(C)C[C@@H](CN(CC(N)=O)S(=O)(=O)c1ccc(C(F)(F)F)cc1)NC(=O)[C@H](CCCCN)NC(=O)[C@H](CCCCN)NC(=O)[C@H](CC(C)C)NC(=O)[C@H](CC(C)C)NC(=O)[C@H](CCCCN)NC(=O)[C@H](CC(C)C)NC(=O)[C@@H](N)Cc1ccccc1 (H-FLKLLKK-X3) | 16 (≈ 12.8 µM) | 16 (≈ 12.8 µM) | 8 (≈ 6.39 µM) | 8 (≈ 6.39 µM) | 4 (≈ 3.19 µM) | 8 (≈ 6.39 µM) | 8 (≈ 6.39 µM) | 8 | 2 | 50 | 50 | Active | Active | 40 | Active | 4 | 0.5 | inactive | inactive | Dose-Dependent Effect | fractional inhibitory concentration index (FICI) (Staphylococcus aureus [16]): 0.5; fractional inhibitory concentration index (FICI) (Pseudomonas aeruginosa [17]): 0.75; fractional inhibitory concentration index (FICI) (Staphylococcus aureus [19]): 0.75; Activity (Cell membrane [23]): Active; Activity (Pseudomonas aeruginosa [24]): Active
CC(C)C[C@H](N)CN(CC(=O)N[C@@H](CCCCN)C(=O)N[C@@H](CC(C)C)C(=O)N[C@@H](CC(C)C)C(=O)N[C@@H](CCCCN)C(=O)N[C@@H](CCCCN)C(=O)N[C@@H](CC(C)C)C(=O)N[C@@H](CC(C)C)C(N)=O)S(=O)(=O)c1ccc(C(F)(F)F)cc1 (X1-[X2]KLLKKLL-NH2) | 16 (≈ 13.1 µM) | 8 (≈ 6.56 µM) | 8 (≈ 6.56 µM) | 4 (≈ 3.28 µM) | 4 (≈ 3.28 µM) | 4 (≈ 3.28 µM) | 4 (≈ 3.28 µM) | 8 | 2 | 50 | 50 | Active | Active | 40 | Active | 4 | 1 | inactive | inactive | Dose-Dependent Effect | Activity (Staphylococcus aureus [25]): Active; fractional inhibitory concentration index (FICI) (Staphylococcus aureus [26]): 1; fractional inhibitory concentration index (FICI) (Staphylococcus aureus [27]): 2; Activity (Cell membrane [28]): Dose-Dependent Effect; Activity (Cell membrane [29]): Active; Activity (Cell membrane [30]): Active; Activity (Cell membrane [31]): Active; Activity (Pseudomonas aeruginosa [24]): Active; Activity [32]: Non-Toxic; log(activity) (Pseudomonas aeruginosa [33]): 4.51; Activity (Pseudomonas aeruginosa [34]): Active; Activity (Pseudomonas aeruginosa [35]): Active; log(activity) (Staphylococcus aureus [36]): 0.82; Activity (Staphylococcus aureus [37]): Active
